Test results from patent US7785828B1 (priority 2003, dated 2010).

Key:
Format in all cases: cell-based
Septoria tritici = tested on: Septoria tritici
Fusarium graminearum = tested on: Fusarium graminearum
Mycosphaerella fijiensis = tested on: Mycosphaerella fijiensis

Sequence | Antifungal activity, Septoria tritici (improvement compared to DmAMP1) (Septoria tritici) | Antifungal activity, Fusarium graminearum (improvement compared to DmAMP1) (Fusarium graminearum) | Antifungal activity, Mycosphaerella fijiensis (improvement compared to DmAMP1) (Mycosphaerella fijiensis)
NLCERASKTWSGNCGNTKHCDNQCKSWEGAAHGACHKRNGKWKCFCYFNC (Defensin like) [L9-18] | ++ (key: + indicating 1- to 5-fold improvement compared to DmAMP1; ++ indicating >5- to 10-fold improvement; +++ indicating >10-fold improvement) | ++ (key: + indicating 1- to 5-fold improvement compared to DmAMP1; ++ indicating >5- to 10-fold improvement; +++ indicating >10-fold improvement) | + (key: + indicating 1- to 5-fold improvement compared to DmAMP1; ++ indicating >5- to 10-fold improvement; +++ indicating >10-fold improvement)
NLCERASKTWSGNCGNTKHCDTQCKNWEGAAHGACHKRNGKWKCFCYFNC (Defensin like) [L9-13] | + (key: + indicating 1- to 5-fold improvement compared to DmAMP1; ++ indicating >5- to 10-fold improvement; +++ indicating >10-fold improvement) | ++ (key: + indicating 1- to 5-fold improvement compared to DmAMP1; ++ indicating >5- to 10-fold improvement; +++ indicating >10-fold improvement) | + (key: + indicating 1- to 5-fold improvement compared to DmAMP1; ++ indicating >5- to 10-fold improvement; +++ indicating >10-fold improvement)
NLCERASKTWTGNCGNTKHCDNQCRNWEGAAHGACHVRSGKHKCFCYFNC (Defensin like) [L6-85] | + (key: + indicating 1- to 5-fold improvement compared to DmAMP1; ++ indicating >5- to 10-fold improvement; +++ indicating >10-fold improvement) | +++ (key: + indicating 1- to 5-fold improvement compared to DmAMP1; ++ indicating >5- to 10-fold improvement; +++ indicating >10-fold improvement) | + (key: + indicating 1- to 5-fold improvement compared to DmAMP1; ++ indicating >5- to 10-fold improvement; +++ indicating >10-fold improvement)
NLCEKASKTWTGNCGNTKHCDNQCRNWEGAAHGACHKRNGKWKCFCYFNC (Defensin like) [L3-71] | +++ (key: + indicating 1- to 5-fold improvement compared to DmAMP1; ++ indicating >5- to 10-fold improvement; +++ indicating >10-fold improvement) | +++ (key: + indicating 1- to 5-fold improvement compared to DmAMP1; ++ indicating >5- to 10-fold improvement; +++ indicating >10-fold improvement) | +++ (key: + indicating 1- to 5-fold improvement compared to DmAMP1; ++ indicating >5- to 10-fold improvement; +++ indicating >10-fold improvement)
NLCERASKTWSGNCGNTKHCDTQCKNWEGAKHGACHVRNGKHKCFCYFNC (Defensin like) [L6-83] | + (key: + indicating 1- to 5-fold improvement compared to DmAMP1; ++ indicating >5- to 10-fold improvement; +++ indicating >10-fold improvement) | +++ (key: + indicating 1- to 5-fold improvement compared to DmAMP1; ++ indicating >5- to 10-fold improvement; +++ indicating >10-fold improvement) | + (key: + indicating 1- to 5-fold improvement compared to DmAMP1; ++ indicating >5- to 10-fold improvement; +++ indicating >10-fold improvement)
NLCEKASKTWSGNCGNTKHCDNQCKNWEGAAHGACHVRNGKHKCFCYFNC (Defensin like) [L6-70] | + (key: + indicating 1- to 5-fold improvement compared to DmAMP1; ++ indicating >5- to 10-fold improvement; +++ indicating >10-fold improvement) | +++ (key: + indicating 1- to 5-fold improvement compared to DmAMP1; ++ indicating >5- to 10-fold improvement; +++ indicating >10-fold improvement) | + (key: + indicating 1- to 5-fold improvement compared to DmAMP1; ++ indicating >5- to 10-fold improvement; +++ indicating >10-fold improvement)
NLCERASKTWSGNCGNTKHCDNQCKNWEGAKHGACHVRNGKHKCFCYFNC [L6-60] (Defensin like) | +++ (key: + indicating 1- to 5-fold improvement compared to DmAMP1; ++ indicating >5- to 10-fold improvement; +++ indicating >10-fold improvement) | +++ (key: + indicating 1- to 5-fold improvement compared to DmAMP1; ++ indicating >5- to 10-fold improvement; +++ indicating >10-fold improvement) | + (key: + indicating 1- to 5-fold improvement compared to DmAMP1; ++ indicating >5- to 10-fold improvement; +++ indicating >10-fold improvement)
NLCEKASKTWSGNCGNTGHCDTQCKNWEGAKHGACHVRNGKHKCFCYFNC (Defensin like) [L5-12] | ++ (key: + indicating 1- to 5-fold improvement compared to DmAMP1; ++ indicating >5- to 10-fold improvement; +++ indicating >10-fold improvement) | ++ (key: + indicating 1- to 5-fold improvement compared to DmAMP1; ++ indicating >5- to 10-fold improvement; +++ indicating >10-fold improvement) | + (key: + indicating 1- to 5-fold improvement compared to DmAMP1; ++ indicating >5- to 10-fold improvement; +++ indicating >10-fold improvement)
NLCEKASKTWTGNCGNTKHCDTQCKSWEGAKHGACHVRSGKHKCFCYFNC (Defensin like) [L9-29] | ++ (key: + indicating 1- to 5-fold improvement compared to DmAMP1; ++ indicating >5- to 10-fold improvement; +++ indicating >10-fold improvement) | +++ (key: + indicating 1- to 5-fold improvement compared to DmAMP1; ++ indicating >5- to 10-fold improvement; +++ indicating >10-fold improvement) | ++ (key: + indicating 1- to 5-fold improvement compared to DmAMP1; ++ indicating >5- to 10-fold improvement; +++ indicating >10-fold improvement)
NLCERASKTWTGNCGNTKHCDNQCKSWEGAAHGACHVRSGKHKCFCYFNC (Defensin like) [L6-39] | ++ (key: + indicating 1- to 5-fold improvement compared to DmAMP1; ++ indicating >5- to 10-fold improvement; +++ indicating >10-fold improvement) | +++ (key: + indicating 1- to 5-fold improvement compared to DmAMP1; ++ indicating >5- to 10-fold improvement; +++ indicating >10-fold improvement) | + (key: + indicating 1- to 5-fold improvement compared to DmAMP1; ++ indicating >5- to 10-fold improvement; +++ indicating >10-fold improvement)
DGVKLCERASQTWTGHCGNTKHCDNQCRSWEGAAHGACHKRSGKWKCFCYFNC (Defensin like) [L7-82] | + (key: + indicating 1- to 5-fold improvement compared to DmAMP1; ++ indicating >5- to 10-fold improvement; +++ indicating >10-fold improvement) | ++ (key: + indicating 1- to 5-fold improvement compared to DmAMP1; ++ indicating >5- to 10-fold improvement; +++ indicating >10-fold improvement) | +++ (key: + indicating 1- to 5-fold improvement compared to DmAMP1; ++ indicating >5- to 10-fold improvement; +++ indicating >10-fold improvement)
NLCERASKTWSGNCGNTKHCDTQCRNWEGAAHGACHKRNGKWKCFCYFNC (Defensin like) [L6-12] | + (key: + indicating 1- to 5-fold improvement compared to DmAMP1; ++ indicating >5- to 10-fold improvement; +++ indicating >10-fold improvement) | +++ (key: + indicating 1- to 5-fold improvement compared to DmAMP1; ++ indicating >5- to 10-fold improvement; +++ indicating >10-fold improvement) | + (key: + indicating 1- to 5-fold improvement compared to DmAMP1; ++ indicating >5- to 10-fold improvement; +++ indicating >10-fold improvement)
NLCEKASKTWSGNCGNTKHCDTQCKSWEGAKHGACHVRNGKHKCFCYFNC (Defensin like) [L5-13] | +++ (key: + indicating 1- to 5-fold improvement compared to DmAMP1; ++ indicating >5- to 10-fold improvement; +++ indicating >10-fold improvement) | +++ (key: + indicating 1- to 5-fold improvement compared to DmAMP1; ++ indicating >5- to 10-fold improvement; +++ indicating >10-fold improvement) | + (key: + indicating 1- to 5-fold improvement compared to DmAMP1; ++ indicating >5- to 10-fold improvement; +++ indicating >10-fold improvement)
NLCEKASKTWSGNCGNTKHCDTQCRNWEGAKHGACHVRNGKHKCFCYFNC (Defensin like) [L6-13] | +++ (key: + indicating 1- to 5-fold improvement compared to DmAMP1; ++ indicating >5- to 10-fold improvement; +++ indicating >10-fold improvement) | +++ (key: + indicating 1- to 5-fold improvement compared to DmAMP1; ++ indicating >5- to 10-fold improvement; +++ indicating >10-fold improvement) | ++ (key: + indicating 1- to 5-fold improvement compared to DmAMP1; ++ indicating >5- to 10-fold improvement; +++ indicating >10-fold improvement)
NLCERASKTWSGNCGNTKHCDTQCRSWEGAAHGACHKRNGKWKCFCYFNC (Defensin like) [L9-14] | + (key: + indicating 1- to 5-fold improvement compared to DmAMP1; ++ indicating >5- to 10-fold improvement; +++ indicating >10-fold improvement) | ++ (key: + indicating 1- to 5-fold improvement compared to DmAMP1; ++ indicating >5- to 10-fold improvement; +++ indicating >10-fold improvement) | + (key: + indicating 1- to 5-fold improvement compared to DmAMP1; ++ indicating >5- to 10-fold improvement; +++ indicating >10-fold improvement)
NLCEKASKTWTGNCGNTKHCDNQCRNWEGAAHGACHKRSGKWKCFCYFNC (Defensin like) [L9-36] | + (key: + indicating 1- to 5-fold improvement compared to DmAMP1; ++ indicating >5- to 10-fold improvement; +++ indicating >10-fold improvement) | + (key: + indicating 1- to 5-fold improvement compared to DmAMP1; ++ indicating >5- to 10-fold improvement; +++ indicating >10-fold improvement) | + (key: + indicating 1- to 5-fold improvement compared to DmAMP1; ++ indicating >5- to 10-fold improvement; +++ indicating >10-fold improvement)
